One assay has as its target TGFβR1 (Homo sapiens (Human), UniProt P36897). The assay is described as follows: TGFβR1 kinase inhibition assay (ADP-Glo Kinase Assay). Format: biochemical. The note with it: 40 nM TGFβR1 in 2x enzyme mix, 5.4 μM ATP in 2x substrate mix, 120 min RT. The procedure: TGFβR1 kinase assay was performed according to the instruction manual of the ADP-Glo™ Kinase Assay kit provided by Promega. Prepare 1× Kinase buffer (50 mM Tris pH7.5, 0.1% BSA, 10 mM MgCl2, 1 mM DTT). Before activation reaction was started, Compounds were dissolved in DMSO and make 100× solution with 3-fold serial dilution for a total of 10 concentrations. Transfer 50 nL compounds to 384-well plate according to plate map using the automated liquid handler. […] Add 5 μL ADP-Glo Reagent to terminate the kinase reaction and deplete the remaining ATP, incubate at RT for 60 minutes. Add 10 μL Kinase Detection Reagent to convert ADP to ATP and allow the newly synthesized ATP to be measured using a luciferin reaction, incubate at RT for 30 minutes. Collect luminescence data with Envision.
For orientation: ADP-Glo first removes unused ATP, then detects ADP through luciferase.

A further assay concerns the target TGFβR2 (Homo sapiens (Human), UniProt P37173). In words: TGFβR2 kinase inhibition assay (ADP-Glo). Format: biochemical. The note with it: 10 uM ATP, 120 min room temperature. How it is done: The TGFβR2 enzyme reaction was carried out as follows: 50 nL of compound in DMSO (or DMSO controls) were stamped into 384 white, low-volume plates. 2.5 μL of 2× enzyme solution (final enzyme concentration was 3 ng/uL in 40 mMTris, 7.5; 20 mM MgCl2; 0.1 mg/mL BSA; 1 mM DTT) was dispensed into assay plate. The plate was then sealed and spun at 1000 rpm for 30 s and incubated at room temperature for 10 min. Followed by addition of 2.5 μL of 2× substrate solution that contains both ATP (to make a final concentration of 10 uM) and TGFβR2 substrate (final concentration of 0.2 ug/uL). The plate was then sealed and spun at 1000 rpm for 30 s and the reaction was then incubated at room temperature for 120 min. After that 5 μL ADP-Glo™ Reagent was added into the assay wells to stop the reaction and deplete unconsumed ATP for 40 min at room temperature; then, 10 μL of Detection Reagent was added into the assay wells, followed by 40 min incubation to develop luminescence. The luminescence signal was then collected on Envision 2104 plate reader.

The structures appear in SMILES notation. pIC50: −log10 of the molar value.

Chain of TGFβR1 (P36897 34-503): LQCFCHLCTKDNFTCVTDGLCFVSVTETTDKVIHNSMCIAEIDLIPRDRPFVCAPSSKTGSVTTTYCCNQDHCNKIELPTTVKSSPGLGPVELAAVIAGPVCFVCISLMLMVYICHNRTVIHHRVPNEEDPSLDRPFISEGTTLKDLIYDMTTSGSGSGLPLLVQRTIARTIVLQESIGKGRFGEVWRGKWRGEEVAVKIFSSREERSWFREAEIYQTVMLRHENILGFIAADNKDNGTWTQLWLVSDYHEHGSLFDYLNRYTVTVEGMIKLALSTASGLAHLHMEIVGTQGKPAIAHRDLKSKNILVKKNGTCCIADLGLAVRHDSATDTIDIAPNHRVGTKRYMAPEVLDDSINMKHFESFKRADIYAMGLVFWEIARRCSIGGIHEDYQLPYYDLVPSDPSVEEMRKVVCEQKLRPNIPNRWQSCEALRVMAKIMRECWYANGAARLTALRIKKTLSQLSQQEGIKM
Chain of TGFβR2 (P37173 23-567): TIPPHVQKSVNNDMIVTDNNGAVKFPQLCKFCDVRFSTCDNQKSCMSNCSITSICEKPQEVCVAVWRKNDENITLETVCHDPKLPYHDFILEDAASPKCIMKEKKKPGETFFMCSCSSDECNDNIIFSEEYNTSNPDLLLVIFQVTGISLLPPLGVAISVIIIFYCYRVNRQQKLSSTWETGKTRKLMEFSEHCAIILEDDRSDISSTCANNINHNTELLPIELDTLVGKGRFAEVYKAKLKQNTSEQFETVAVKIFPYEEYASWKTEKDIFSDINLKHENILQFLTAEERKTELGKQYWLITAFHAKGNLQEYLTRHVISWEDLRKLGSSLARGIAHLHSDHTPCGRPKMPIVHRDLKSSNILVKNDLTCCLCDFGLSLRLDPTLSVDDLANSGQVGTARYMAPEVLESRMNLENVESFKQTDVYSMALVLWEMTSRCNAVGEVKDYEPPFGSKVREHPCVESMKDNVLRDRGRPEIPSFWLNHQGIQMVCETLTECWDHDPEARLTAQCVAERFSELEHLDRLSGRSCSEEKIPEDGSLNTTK

For the compound `CC(C)(O)c1cc(Nc2cc(Oc3cc(C4CC4)nn3C3CCOCC3)ccn2)ccn1` [Compound 1], on TGFβR1, the pIC50 was 7.21.

Consider `CC(C)(O)c1cc(Nc2cc(Oc3cc(C4CC4)nn3C3CCOCC3)ncn2)ccn1` [Compound 3], for which the pIC50 against TGFβR1 is 6.08; against TGFβR2, less than 4.00.

With `Cc1cc(Oc2ccnc(Nc3ccnc(C(C)(C)O)c3)c2)n(C2CCOCC2)n1` [Compound 4], the negative logarithm of the IC50 (pIC50) against TGFβR1 was 7.22.

For the compound `CC(C)(O)c1cc(Nc2cc(Oc3cc(C4CC4)nn3C3CC3)ccn2)ccn1` [Compound 5], the pIC50 against TGFβR1 is 7.37; on TGFβR2 it was less than 4.00.

Compound `CC(C)(O)c1cc(Nc2cc(Oc3cc(C4CC4)nn3C(C)(C)C)ccn2)ccn1` [Compound 6] had a pIC50 on TGFβR1 of 7.34.

Turning to `CC(C)(O)c1cc(Nc2cc(Oc3cc(C(F)(F)F)nn3C3CC3)ccn2)ccn1` [Compound 7], the pIC50 against TGFβR1 was 6.25; against TGFβR2, less than 4.00.

Turning to `CC(C)(O)c1cc(Nc2cc(Oc3cc(C(F)F)nn3C3CCOCC3)ccn2)ccn1` [Compound 8], the negative logarithm of the IC50 (pIC50) is 6.76 against TGFβR1 and less than 4.00 against TGFβR2.

As for `N#Cc1cccc(Nc2cc(Oc3cc(C(F)(F)F)nn3C3CCOCC3)ccn2)c1` [Compound 9], the negative-log IC50 (pIC50) at TGFβR1 is 6.79; against TGFβR2, less than 4.00.

Consider `C[C@@H]1C[C@@H](n2nc(C3CC3)cc2Oc2ccnc(Nc3ccnc(C(C)(C)O)c3)c2)C[C@H](C)O1` [Compound 18], for which the negative-log IC50 (pIC50) at TGFβR1 is less than 5.00.

As for `C[C@@H]1C[C@H](n2nc(C3CC3)cc2Oc2ccnc(Nc3ccnc(C(C)(C)O)c3)c2)C[C@H](C)O1` [Compound 19], the negative logarithm of the IC50 (pIC50) against TGFβR1 was 5.11.

Compound `CC(C)(O)c1cc(Nc2cc(Oc3cc(C(F)(F)F)nn3CC3CC3)ccn2)ccn1` [Compound 20] gave a pIC50 on TGFβR1 of 7.32.

At TGFβR1, `CCn1nc(C(F)(F)F)cc1Oc1ccnc(Nc2ccnc(C(C)(C)O)c2)c1` [Compound 22] had a negative logarithm of the IC50 (pIC50) of 7.27.

Turning to `CC(C)(O)c1cc(Nc2cc(Oc3cc(C(F)(F)F)nn3C3CNC3)ccn2)ccn1` [Compound 24], the negative-log IC50 (pIC50) against TGFβR1 was 6.65.

Regarding `CC(C)n1nc(C(F)(F)F)cc1Oc1ccnc(Nc2ccnc(C(C)(C)O)c2)c1` [Compound 25], the pIC50 against TGFβR1 was 7.18.

At TGFβR1, `CC(C)(O)c1cc(Nc2cc(Oc3cc(C(F)(F)F)nn3C3CCNCC3)ccn2)ccn1` [Compound 26] had a pIC50 of 7.06.

Compound `CC(C)(O)c1cc(Nc2cc(Oc3cc(C(F)(F)F)nn3C3CC3)ccn2)ccn1` [Compound 27] gave a pIC50 at TGFβR1 of 7.24.

On TGFβR1, `C[C@@H]1C[C@@H](n2nc(C(F)(F)F)cc2Oc2ccnc(Nc3ccnc(C(C)(C)O)c3)c2)C[C@H](C)O1` [Compound 30] showed a pIC50 of 7.05.

As to `C[C@@H]1C[C@H](n2nc(C(F)(F)F)cc2Oc2ccnc(Nc3ccnc(C(C)(C)O)c3)c2)C[C@H](C)O1` [Compound 31], the pIC50 against TGFβR1 is 5.98.

For `CC(C)(O)c1cc(Nc2cc(Oc3cc(C(F)(F)F)nn3C3CCNC3)ccn2)ccn1` (stereo not shown) [Compound 32], at TGFβR1, the negative-log IC50 (pIC50) was 6.06.

In the case of `CC(C)(O)c1cc(Nc2cc(Oc3cc(C(F)(F)F)nn3-c3ccc(F)cc3)ccn2)ccn1` [Compound 35], the negative logarithm of the IC50 (pIC50) against TGFβR1 is 7.07.

Regarding `CC(C)(O)c1cc(Nc2cc(Oc3cc(C(F)(F)F)nn3-c3cccc(Cl)c3)ccn2)ccn1` [Compound 36], at TGFβR1, the negative-log IC50 (pIC50) is 7.25.

At TGFβR1, `CC(C)(O)c1cc(Nc2cc(Oc3cc(C(F)(F)F)nn3-c3cccnc3)ccn2)ccn1` [Compound 37] showed a negative logarithm of the IC50 (pIC50) of 6.55.

`COc1cc(Oc2ccnc(Nc3ccnc(C(C)(C)O)c3)c2)n(C2CCOCC2)n1` [Compound 39] had a negative-log IC50 (pIC50) at TGFβR1 of 6.90.

Consider `CC(C)(O)c1cc(Nc2cc(Oc3cc(C(F)(F)F)nn3-c3ccccc3Cl)ccn2)ccn1` [Compound 40], for which the negative-log IC50 (pIC50) at TGFβR1 was 7.15.

`CC(C)(O)c1cc(Nc2cc(Oc3cc(C(F)(F)F)nn3-c3cncnc3)ccn2)ccn1` [Compound 42] had a pIC50 on TGFβR1 of 6.58.

The compound `CC(C)(O)c1cc(Nc2cc(Oc3cc(C(F)(F)F)nn3-c3ccc(Cl)cc3)ccn2)ccn1` [Compound 43] showed a negative-log IC50 (pIC50) against TGFβR1 of 6.80.

The compound `CC(C)(O)c1cc(Nc2cc(Oc3cc(C(F)(F)F)nn3-c3ccc(C#N)cc3)ccn2)ccn1` [Compound 44] had a negative-log IC50 (pIC50) against TGFβR1 of 6.85.

For `CC1(C)OC(=N)c2ccc(Nc3cc(Oc4cc(C5CC5)nn4C4CCOCC4)ccn3)cc21` [Compound 46], the pIC50 on TGFβR1 is 7.18.

The compound `CC1(C)OC(=O)c2ccc(Nc3cc(Oc4cc(C5CC5)nn4C4CCOCC4)ccn3)cc21` [Compound 47] showed a negative-log IC50 (pIC50) at TGFβR1 of 6.99.

`CC(C)(O)c1cc(Nc2cc(Oc3cc(C(F)(F)F)nn3-c3ccncc3)ccn2)ccn1` [Compound 48] showed a pIC50 against TGFβR1 of 6.88.

Consider `CC(C)(O)c1cc(Nc2cc(Oc3cc(C(F)(F)F)nn3[C@@H]3C[C@H]4CC[C@@H](C3)O4)ccn2)ccn1` [Compound 49], for which the negative-log IC50 (pIC50) at TGFβR1 was 7.49.

`CC(C)(O)c1cc(Nc2cc(Oc3cc(C(F)(F)F)nn3[C@H]3C[C@H]4CC[C@@H](C3)O4)ccn2)ccn1` [Compound 50] had a negative logarithm of the IC50 (pIC50) on TGFβR1 of 6.95.

On TGFβR1, `CC(C)(O)c1cc(Nc2cc(Oc3cc(C(F)(F)F)nn3-c3ccccc3C#N)ccn2)ccn1` [Compound 51] showed a pIC50 of 7.26.

In the case of `COc1ccc(Oc2ccnc(Nc3ccnc(C(C)(C)O)c3)c2)c(C2CCOCC2)n1` [Compound 56], at TGFβR1, the pIC50 is 6.66.

As to `CC(C)(O)c1cc(Nc2cc(Oc3ccc(C(F)(F)F)nc3C3CCOCC3)ccn2)ccn1` [Compound 60], the negative logarithm of the IC50 (pIC50) at TGFβR1 was 7.30.

As for `CC(C)(O)c1cc(Nc2cc(Oc3ccc(C4CC4)nc3C3CCOCC3)ccn2)ccn1` [Compound 61], at TGFβR1, the pIC50 is 6.94.

`Cc1ccc(Oc2ccnc(Nc3ccc(C(C)(C)O)nc3)c2)c(C)n1` [Compound 62] had a pIC50 against TGFβR1 of 7.54.

Take `Cc1ccc(Oc2ccnc(Nc3ccnc(C(C)(C)O)c3)c2)c(C(F)(F)F)n1` [Compound 63]: on TGFβR1, the negative-log IC50 (pIC50) is 7.09.

With `COc1ccc(Oc2ccnc(Nc3ccnc(C(C)(C)O)c3)c2)c(C)n1` [Compound 64], the negative-log IC50 (pIC50) on TGFβR1 is 7.49.

At TGFβR1, `Cc1nc(C(F)(F)F)ccc1Oc1ccnc(Nc2ccnc(C(C)(C)O)c2)c1` [Compound 65] gave a negative logarithm of the IC50 (pIC50) of 7.85.

As for `Cc1ccc(Oc2ccnc(Nc3ccnc(C(C)(C)O)c3)c2)c(CC(C)C)n1` [Compound 66], at TGFβR1, the pIC50 is 8.40.

On to `CC(C)(O)c1cc(Nc2cc(Sc3cn(C4CC4)nc3C3CCOCC3)ccn2)ccn1` [Compound 70], for which the negative-log IC50 (pIC50) against TGFβR1 was 7.10.

Compound `CC(C)(O)c1cc(Nc2cc(Oc3c(C4CCOCC4)nn4c3CCC4)ccn2)ccn1` [Compound 71] had a negative logarithm of the IC50 (pIC50) on TGFβR1 of 7.60.

`CC(C)(O)c1cc(Nc2cc(Oc3sc(C4CC4)nc3C3CCOCC3)ccn2)ccn1` [Compound 72]: the negative-log IC50 (pIC50) on TGFβR1 is 6.95.

Regarding `NS(=O)(=O)c1ccc(Nc2cc(Oc3cn(C4CC4)nc3C3CCOCC3)ccn2)cc1` [Compound 73], the negative-log IC50 (pIC50) at TGFβR1 is 7.85.

Turning to `C[C@@H]1CC(c2nn(C3CC3)cc2Oc2ccnc(Nc3ccnc(C(C)(C)O)c3)c2)C[C@H](C)O1` (stereo partly shown) [Compound 74], the negative-log IC50 (pIC50) on TGFβR1 was 7.77.

On to `CC(C)(C)c1nc(C2CC2)sc1Oc1ccnc(Nc2ccnc(C(C)(C)O)c2)c1` [Compound 75], for which the negative logarithm of the IC50 (pIC50) on TGFβR1 was 5.17.

`CC(C)c1nc(C2CCOCC2)c(Oc2ccnc(Nc3ccnc(C(C)(C)O)c3)c2)s1` [Compound 76]: the pIC50 against TGFβR1 is 7.05.

For `CC(C)(O)c1cc(Nc2cc(Oc3cn(C4CC4)nc3C3CCC(F)(F)CC3)ccn2)ccn1` [Compound 77], the negative-log IC50 (pIC50) on TGFβR2 was 4.41.

Take `CC(C)(O)c1cc(Nc2cc(Oc3cn(C4CC4)nc3C(=O)Nc3ccccc3F)ccn2)ccn1` [Compound 80]: the negative logarithm of the IC50 (pIC50) against TGFβR1 was 7.24.

In general, pIC50 refers to −log10 of the IC50, conventionally taken in molar units. High values mean a small IC50, low ones a large IC50.
